{"source": "patent US20260043803A1", "about": "“MEANS FOR DETECTING S[…]” (ACADEMISCH ZIEKENHUIS LEIDEN (H.O.D.N. LUMC), priority 2022, published 2026)", "key": {"IgM antibodies": {"tested_on": "IgM antibodies", "assay": "Microarray, serum IgM binding to printed CAA structures, controlled human infection samples", "conditions": "individual level, infection with 10, 20, 30 cercariae; FIG. 3-5", "description": "(§1) Immunopurified native schistosome CAA, synthetic di-, tetra-, hexa-, and octasaccharides with appropriate positive and negative controls were printed in triplicates onto epoxilane coated glass slides (Nexterion Slide E, Schott 1066643) with a MicroGrid robot (BioRobotics). See general methodology in (de Boer, Hokke et al. 2007).\n(§2) Microarrays with fitted silicone gaskets (64 samples/slide) were reconstituted in 1×PBS and blocked for minimum one hour (PBS, 2% bovine serum albumin (Sigma-Aldrich A3059) with 50 mM ethanolamine (>99.5%, Sigma-Aldrich 411000)) on shaker. Each array washed in PBS Tween 0.05%, PBS and 30 ul serum sample 1:100 in buffer/array added for 1 hour incubation at room temperature on shaker. Arrays were then washed (as above) and 1:1000 detection antibodies added (goat anti-human IgG-Cy-3, Sigma-Aldrich C2571; goat anti-human IgM-AF647, Invitrogen, A21249) for 30 min room temperature incubation on shaker. Finally, slides were washed as above with an additional wash in milli-Q before they were spun dry and scanned (Agilent Scan Control™ 2006). For nasosorption samples, they were incubated as above with the following changes. Samples were eluted in PBS 1% BSA 0.05% Triton-X and incubated as 1:2 dilution. For detection goat anti-human IgA-Dylight 650 (Novus NBP 1-75754) was used in 500×dilution.\n(§3) Microarray scan images were obtained through Agilent Feature Extraction 10.7.3.1 and imported into GenePixPro vs7. Spot morphology quality was inspected and median fluorescence intensity (MFI) values obtained per nanodot with an average of a triplicate per target used for analyses. Further data processing was done in Microsoft Excel and graphs were generated using GraphPad Prism 9.3.1."}, "IgA antibodies [1]": {"tested_on": "IgA antibodies", "assay": "Microarray, IgA binding in nasosorption samples, controlled human infection", "conditions": "20 cercariae, baseline and 8 weeks post infection; FIG. 10", "description": "as §1\nas §2, with “For nasosorption samples, they were incubated as above with the following changes. Samples were eluted in PBS 1% BSA 0.05% Triton-X and incubated as 1:2 dilution. For detection goat anti-human IgA-Dylight 650 (Novus NBP 1-75754) was used in 500×dilution.” left out\n(§4) Microarray scan images were obtained through Agilent Feature Extraction 10.7.3.1 and imported into GenePixPro vs7. Spot morphology quality was inspected and median fluorescence intensity (MFI) values obtained per nanodot with an average of a triplicate per target used for analyses. […]"}, "IgA antibodies [2]": {"tested_on": "IgA antibodies", "assay": "Microarray, IgA binding in serum samples, controlled human infection", "conditions": "20 cercariae, n=7, eight weeks post infection; FIG. 9", "description": "as §1\nMicroarrays with fitted silicone gaskets (64 samples/slide) were reconstituted in 1×PBS and blocked for minimum one hour (PBS, 2% bovine serum albumin (Sigma-Aldrich A3059) with 50 mM ethanolamine (>99.5%, Sigma-Aldrich 411000)) on shaker. Each array washed in PBS Tween 0.05%, PBS and 30 ul serum sample 1:100 in buffer/array added for 1 hour incubation at room temperature on shaker. […] Finally, slides were washed as above with an additional wash in milli-Q before they were spun dry and scanned (Agilent Scan Control™ 2006). […] Samples were eluted in PBS 1% BSA 0.05% Triton-X and incubated as 1:2 dilution. […]\nas §3"}, "IgG antibodies": {"tested_on": "IgG antibodies", "assay": "Microarray, serum IgG binding to printed CAA structures, controlled human infection samples", "conditions": "three individual sera, FIG. 14", "description": "as §1\nas §2, with “For nasosorption samples, they were incubated as above with the following changes. Samples were eluted in PBS 1% BSA 0.05% Triton-X and incubated as 1:2 dilution. For detection goat anti-human IgA-Dylight 650 (Novus NBP 1-75754) was used in 500×dilution.” left out\nas §4"}}, "data": [{"compound": "CC(=O)NC1C(O[C@@H]2OC(C(=O)O)[C@@H](O)C(O)C2O)[C@@H](O)C(CO)O[C@H]1OCC1O[C@@H](OCC2O[C@@H](OCC3O[C@@H](OCCCCCCN)C(NC(C)=O)C(O[C@@H]4OC(C(=O)O)[C@@H](O)C(O)C4O)[C@H]3O)C(NC(C)=O)C(O[C@@H]3OC(C(=O)O)[C@@H](O)C(O)C3O)[C@H]2O)C(NC(C)=O)C(O[C@@H]2OC(C(=O)O)[C@@H](O)C(O)C2O)[C@H]1O", "note": "(some centres unmarked) [octasaccharide]", "values": [{"measurement": "IgM background at baseline (specificity)", "setting": "IgM antibodies", "result": "improves further"}, {"measurement": "detection of specific IgA in nasosorption samples", "setting": "IgA antibodies [1]", "result": "detectable"}, {"measurement": "detection of specific IgA in serum", "setting": "IgA antibodies [2]", "result": "detection"}]}, {"compound": "CC(=O)NC1C(O[C@@H]2OC(C(=O)O)[C@@H](O)C(O)C2O)[C@@H](O)C(CO)O[C@H]1OCC1O[C@@H](OCCCCCCN)C(NC(C)=O)C(O[C@@H]2OC(C(=O)O)[C@@H](O)C(O)C2O)[C@H]1O", "note": "(stereo partly drawn) [tetrasaccharide, 6-aminohexyl 2-acetamido-2-deoxy-3-O-(β-D-glucoronic acid)-6-O-(2-acetamido-2-deoxy-3-O-(β-D-glucuronic acid)-β-D-galactopyranose)-β-D-galactopyranose]", "values": [{"measurement": "IgM background at baseline (specificity)", "setting": "IgM antibodies", "result": "too high"}, {"measurement": "IgM response pattern compared with native CAA", "setting": "IgM antibodies", "result": "a dynamic range resembling native material is starting to appear"}]}, {"compound": "6-aminohexyl 2-acetamido-2-deoxy-3-O-(3-D-glucoronic acid)-6-O-(2-acetamido-2-deoxy-3-O-(3-D-glucuronic acid)-6-O-(2-acetamido-2-deoxy-3-O-(β-D-glucuronic acid)-6-O-(2-acetamido-2-deoxy-3-O-(3-D-glucuronic acid)-6-O-(2-acetamido-2-deoxy-3-O-(3-D-glucuronic acid)-β-D-galactopyranose)-β-D-galactopyranose)-3-D-galactopyranose-β-D-galactopyranose [CAA decasaccharide]", "values": [{"measurement": "IgG response at week 8 after infection", "setting": "IgG antibodies; 20 male S. mansoni cercariae", "result": "equal or stronger than to shorter CAA fragments"}, {"measurement": "IgG pre-infection response", "setting": "IgG antibodies; prior to infection", "result": "negligible"}]}, {"compound": "CC(=O)NC1C(O[C@@H]2OC(C(=O)O)[C@@H](O)C(O)C2O)[C@@H](O)C(CO)O[C@H]1OCCCCCCN", "note": "(stereo partly drawn) [disaccharide, 6-aminohexyl 2-acetamido-2-deoxy-3-O-(β-D-glucoronic acid)-β-D-galactopyranose]", "values": [{"measurement": "IgM response pattern compared with native CAA", "setting": "IgM antibodies", "result": "not representative of CAA"}]}]}
